{
  "source": "patent US20150366523A1",
  "about": "“NEURONAL IMAGING AND TREATMENT” (priority 2013, published 2015)",
  "key": {"[1]": {"tested_on": "prostate stromal cells", "details": "in vitro; cited from earlier work"}, "[2]": {"tested_on": "adrenergic synapses of the sympathetic nervous system", "assay": "SPECT imaging of I-123-radiolabeled mIBG distribution in the heart, combined with x-ray CT", "type": "in vivo", "details": "human patient, I-123-mIBG, D-SPECT plus CT", "method": "A human patient was administered I-123-radiolabeled mIBG, a radioactive tracer for adrenergic synapses of the sympathetic nervous system. An image based on mIBG distribution was obtained by SPECT using a D-SPECT® Cardiac Imaging System (Spectrum Dynamics, Israel). The anatomy of the heart was determined by performing x-ray CT imaging and segmenting the obtained x-ray CT images. The x-ray CT data was then combined with the SPECT data so as to construct an image showing mIBG distribution in the heart."}},
  "data": [
    {"smiles": "NC[C@H](O)c1ccc(O)c(O)c1", "note": "[Norepinephrine, norepinephrine]", "values": [
      {"measurement": "mitogenic effect on prostate stromal cells", "setting": "[1]", "value": "direct mitogenic effect"}
    ]},
    {"smiles": "N=C(N)NCc1cccc(I)c1", "note": "[mIBG, m-iodobenzylguanidine]", "values": [
      {"measurement": "mIBG activity in left atrium (site of maximal activity level)", "setting": "[2]; left atrium, FIGS. 6A-6D", "value": "maximal activity level in the left inferior pulmonary vein"},
      {"measurement": "mIBG activity in right ventricle (site of maximal activity level)", "setting": "[2]; right ventricle, FIGS. 8A-8B", "value": "maximal activity level in the interventricular septum"}
    ]}
  ]
}
